Assay results reported in ChEMBL document CHEMBL1201862, “PubChem BioAssay data set” (2004).
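Compound exposure: 48 hours, 5 concentrations, 96-well plates. GI50 is the concentration that inhibits growth by half.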 Calls of active or inactive are those of the source. Rule as the data show it: active = GI50 up to about 1.1 µM and inactive = higher.

Key:
Test in all cases: NCI-60 cell line screen, 48 h
UACC-257 = tested on: UACC-257
NCI-H226 = tested on: NCI-H226
NCI-H522 = tested on: NCI-H522
SW-620 = tested on: SW-620
SF-539 = tested on: SF-539
SF-295 = tested on: SF-295
SK-MEL-2 = tested on: SK-MEL-2
HL-60 = tested on: HL-60
HOP-62 = tested on: HOP-62
MDA-MB-435 = tested on: MDA-MB-435
SN12C = tested on: SN12C
SK-MEL-28 = tested on: SK-MEL-28
HCT-116 = tested on: HCT-116
MDA-N = tested on: MDA-N
COLO 205 = tested on: COLO 205
PC-3 = tested on: PC-3
HOP-92 = tested on: HOP-92
A549 = tested on: A549
SR = tested on: SR
SK-MEL-5 = tested on: SK-MEL-5

| SMILES | GI50 (UACC-257) | GI50 (NCI-H226) | GI50 (NCI-H522) | GI50 (SW-620) | GI50 (SF-539) | GI50 (SF-295) | GI50 (SK-MEL-2) | GI50 (HL-60) | GI50 (HOP-62) | GI50 (MDA-MB-435) | GI50 (SN12C) | GI50 (SK-MEL-28) | GI50 (HCT-116) | GI50 (MDA-N) | GI50 (COLO 205) | GI50 (PC-3) | GI50 (HOP-92) | GI50 (A549) | GI50 (SR) | GI50 (SK-MEL-5) |
| --- | --- | --- | --- | --- | --- | --- | --- | --- | --- | --- | --- | --- | --- | --- | --- | --- | --- | --- | --- | --- |
| O=C(Nc1ccc([As](=O)(O)O)cc1)Nc1cccc(Cl)c1Cl | > 100 µM (inactive) | > 100 µM (inactive) | > 100 µM (inactive) | > 100 µM (inactive) | > 100 µM (inactive) | 65.5 µM (inactive) | > 100 µM (inactive) | > 100 µM (inactive) | 70 µM (inactive) | > 100 µM (inactive) | > 100 µM (inactive) | > 100 µM (inactive) | > 100 µM (inactive) | > 100 µM (inactive) | > 100 µM (inactive) | 83.9 µM (inactive) | 77.8 µM (inactive) | > 100 µM (inactive) | 17 µM (inactive) | > 100 µM (inactive) |
| O=C(CCCC1Cc2ccccc2C1=O)c1ccccc1 (stereo not given) | 46.2 µM (inactive) | 70.1 µM (inactive) | 52.7 µM (inactive) | > 100 µM (inactive) | > 100 µM (inactive) | 47.5 µM (inactive) | > 100 µM (inactive) | 32.4 µM (inactive) | > 100 µM (inactive) | 56.1 µM (inactive) | 54.7 µM (inactive) | > 100 µM (inactive) | 63.8 µM (inactive) | 66.2 µM (inactive) | 93.8 µM (inactive) | 35.1 µM (inactive) | 62.8 µM (inactive) | 50 µM (inactive) | 41.2 µM (inactive) | 35.6 µM (inactive) |
| C[C@]12CC/C(=N\O)C=C1CC[C@@H]1[C@@H]2CC[C@]2(C)C(=N/O)/C(=C/c3ccncc3)C[C@@H]12 | 28.4 µM (inactive) | 6.37 µM (inactive) | 27.2 µM (inactive) | 37.4 µM (inactive) | 31.8 µM (inactive) | 31.3 µM (inactive) | 15 µM (inactive) | 0.1 µM (active) | 41.2 µM (inactive) | 21.8 µM (inactive) | 17.3 µM (inactive) | 39.8 µM (inactive) | 10 µM (inactive) | 21.7 µM (inactive) | 15.9 µM (inactive) | 14 µM (inactive) | 30.5 µM (inactive) | 11.1 µM (inactive) | 12.7 µM (inactive) | 7 µM (inactive) |
| C/C=C1\C[C@@H]2C(OC)Nc3cc(O)c(OC)cc3C(=O)N2C1 (stereo not given in full) | < 0.01 µM (active) | 0.0223 µM (active) | < 0.01 µM (active) | < 0.01 µM (active) | < 0.01 µM (active) | < 0.01 µM (active) | < 0.01 µM (active) | < 0.01 µM (active) | < 0.01 µM (active) | < 0.01 µM (active) | < 0.01 µM (active) | < 0.0107 µM (active) | < 0.01 µM (active) | < 0.01 µM (active) | 0.00692 µM (active) | < 0.01 µM (active) | < 0.01 µM (active) | < 0.01 µM (active) | 0.000431 µM (active) | < 0.01 µM (active) |
| CC(=O)OC(C)c1cc2c(s1)C(=O)c1ccsc1C2=O (stereo not given) | 0.028 µM (active) | 1.61 µM (inactive) | 0.149 µM (active) | 0.324 µM (active) | 0.0528 µM (active) | 0.113 µM (active) | 0.483 µM (active) | 0.0122 µM (active) | 0.137 µM (active) | 0.0168 µM (active) | 0.156 µM (active) | 0.172 µM (active) | 0.226 µM (active) | 0.0206 µM (active) | 0.776 µM (active) | 0.041 µM (active) | 0.372 µM (active) | 1.37 µM (inactive) | 0.0748 µM (active) | 0.0273 µM (active) |
